Experimental data taken from patent publication US11180767B2, “Protease deficient filamentous fungal cells and methods of use thereof” (GLYKOS FINLAND OY, priority 2012, dated 2021).
Non-standard residues stand in square brackets, D forms with d. Residues, ends and D or L forms follow the SMILES beside them. *: point of attachment. Sta = CC(C)C[C@H](N)[C@@H](O)CC(=O)O; Isovaleryl = CC(C)CC(=O)*

Experiments:
aspartic proteases = experiment: IgG degradation by pepstatin A affinity purified aspartic proteases; assay type: biochemical, Trichoderma reesei; settings: 10 μM pepstatin A; pH 5.5, 37°C, 20 hours
Description: The T. reesei fed batch fermentation supernatant (15 ml) was used to batch bind proteases to the resin in 35 ml of buffer containing 50 mM sodium acetate, 0.2 M NaCl, pH 3.0. The column was washed with the same binding buffer and bound protein was removed with elution buffer (50 mM Tris-HCL, 1 M NaCl, pH 8.5). Fractions of 0.5 ml were collected. In total 42 μg of protease was purified. The peak fraction contained 0.04 μg/μl protein. 30 μl of each fraction was mixed with 6 μl of Laemmli sample buffer containing β-mercaptoethanol. The samples were heated at 95° C. for 5 minutes before being loaded into a 4-15% PAGE gel (BioRad mini-protean TGX precast gel) along with a broad range prestained molecular weight marker (BioRad). The gel was run in SDS PAGE running buffer for 30 minutes at 100 V, and then stained with GelCode (Thermo Scientific) blue stain.
Protein (0.8 μg) from the peak fraction (F3) was then incubated with IgG (50 μg ml) in sodium citrate buffer (50 mM, pH 5.5) at 37° C. for 20 hours (FIG. 2). The protein was incubated either in the presence or absence of 10 μM pepstatin A. The antibody mixture was combined with Laemmli sample buffer and heated at 95° C. for 5 minutes. These samples were then loaded into a 4-15% PAGE gel (BioRad mini-protean TGX precast gel) along with a broad range prestained molecular weight marker (BioRad). […]

[1] = tested on: SIP purified proteases (PEP2, PEP3, PEP4, PEP5, GAP1, SLP2); experiment: Protease activity of SIP purified fractions against casein with inhibitors (EnzChek); assay type: biochemical, Trichoderma reesei; settings: pH 5.5
Description: Protease activity was then tested against casein both in the presence and absence of protease inhibitors. Protease activity against casein was tested using the EnzChek protease assay kit (Molecular probes #E6638, green fluorescent casein substrate). The working stock solution was prepared by diluting the stock to 10 μg ml in 50 mM sodium citrate, pH 5.5. The purified protease fractions (10 μl) were diluted with […] of sodium citrate, pH 5.5. 100 μl of the diluted substrate was combined with the diluted protease fractions in a 96 well sample plate. The plate was then covered and kept at 37° C. for one to three hours. Fluorescence readings were taken at one, two, and three hours with a Varioskan fluorescent plate reader (Thermo Scientific) using 485 nm excitation and 530 nm emission.
The SIP inhibitor peptide, pepstatin A, LIP peptide, SBTI, and chymostatin were used as inhibitors. […] SIP, LIP, and pepstatin A were used at a concentration of 60 μM, and SBTI was used at a concentration of 200 μg/ml.

[2] = tested on: rituximab antibody producing strain; experiment: Treatment of T. reesei rituximab cultures with inhibitors; assay type: cell-based, Trichoderma reesei; settings: small shake flasks, inhibitors added daily day 2-5
Description: The effectiveness of the inhibitors was also tested with the rituximab antibody producing strain, which contains a VALEKR linker sequence and the pep1 deletion. This strain was grown in triplicate, in small flasks both in presence or absence of chymostatin, SBTI, or pepstatin A. The small shake flasks contained 50 ml of TrMM plus lactose (40 g/l), spent grain extract (20 g/l), and buffer with 100 mM PIPPS at pH 5.5. The SBTI inhibitor was added to the culture at final concentrations of either 100 μg/ml or 500 μg/ml. Chymostatin was used at 100 μM, and pepstatin A was used at 10 μM. Each of the three inhibitors was added to the cultures daily on day 2, 3, 4, and 5.
Growth of the cultures was followed daily by pH from day 2 until day 7. […] In the PIPPS buffered cultures, the pH decreased from an initial pH of 5.5 down to a pH of 4.8 after day 6. With chymostatin and pepstatin A the cultures were monitored up to day 7. On day 7 the average pH for the control bottles was 4.6, while the average pH for chymostatin treated cultures was 4.9, and the average pH of pepstatin A treated cultures was 5.0.
Culture supernatant samples (30 μl) were also collected on days 3, 4, and 5 for analysis of antibody production. The analysis was performed by immunoblots using an anti-IgG heavy chain antibody AP conjugate (Sigma #A3188) and an anti-light chain antibody AP conjugate (Sigma #A3812). Each antibody was diluted 1:30,000 in TBST. The full length rituximab heavy chain is about 51 kD, the rituximab light chain CHBI fusion is about 100 kD, and the free rituximab light chain is about 28 kD.

[3] = tested on: proteases in supernatant from the 6-fold protease deletion strain M400; experiment: Protease stability of proteins spiked into supernatant of the 6-fold protease deletion strain; assay type: biochemical, Trichoderma reesei; settings: pepstatin A 50 μM; SBTI 0.2 mg/ml; pH 4.2, 20 hours, 37°C
Description: The protease stability of the model proteins IGF1, hGH, and IFNα2b were analyzed by spiking them into supernatant from the 6-fold protease deletion strain (Δpep1Δtsp1Δslp1Δgap1Δgap2Δpep4) M400. The supernatant was collected from a large shake flask culture CAH15. The undiluted supernatant from the shake flask cultivation CAH15 was incubated with the purified model proteins with and without pepstatin A (50 μM) and SBTI (0.2 mg/ml) inhibitors for 20 hours at 37° C. The 5 day culture supernatant pH was around 4.2. The reaction containing 0.05 μg μl of model protein was sampled after 20 hours. 50 mM sodium citrate pH 4.0 spiked with model proteins (0.05 g 1) was used as a buffer control.
From each reaction 10 μl was loaded into an 18% SDS PAGE gel and run for 30 minutes at 200 V. The proteins in the gel were then transferred to nitrocellulose for immunoblotting. The nitrocellulose membrane was blocked for 1 hour at room temperature with 5% milk in TBST buffer. The individual blots were probed with their specific primary antibody to detect the appropriate model protein for 1 hour at room temperature on a shaker. The mouse anti-IGF1 antibody (R&D systems #mab291) was used at 2 μg/ml diluted in TBST. The mouse anti-rhGH antibody (Abeam #ab51232) was used at 2 μg/ml diluted in TBST. The mouse anti-IFNα2b antibody (Abeam #ab9386) was used at 1 μg/ml diluted in TBST. After briefly washing the blot membranes with TBST, the secondary antibody was added for 1 hour at room temperature shaking. The secondary goat anti-mouse AP conjugated antibody (Biorad #170-6520) was diluted 1:10,000 in TBST.
This same spiking experiment as was done with MAB01 to investigate its stability in the 6 protease deletion supernatant with and without inhibitors (FIG. 43). Samples were taken as described above and immunoblotted with an anti-heavy chain AP conjugated antibody (Sigma #A3188). […] There was no obvious benefit having used inhibitors. The antibody was stable in this pH 4.2 supernatant. […]

Compound: CC(C)CC(=O)N[C@H](C(=O)N[C@H](C(=O)N[C@@H](CC(C)C)[C@@H](O)CC(=O)N[C@@H](C)C(=O)N[C@@H](CC(C)C)[C@@H](O)CC(=O)O)C(C)C)C(C)C [pepstatin A] (Isovaleryl-VV[Sta]A[Sta]-OH)
- IgG degradation by aspartic proteases (aspartic proteases): inhibited
- proteases inhibited ([1]; SIP, LIP, pepstatin A 60 μM, SBTI 200 μg/ml): inhibited only aspartic proteases
- inhibition of SIP purified protease activity against casein ([1]; FIG. 11): a large portion of the SIP protease activity was inhibited
- effect on culture growth (followed by pH) [2]: small reduction in growth
- stabilisation of hGH, IFNα2b and IGF1 in supernatant [3]: remarkably stabilized
